According to US20250382344A1, “Soluble GLP1/GIP/NPY2 Receptor Triple Agonists” (Boehringer Ingelheim International GmH, priority 2024, published 2025):
Where two headings read alike, the source gives them in different places.

Legend:
[1] = Solubility in 0.1 M phosphate buffer at pH 7; assay type: physicochemical; settings: 0.1 M phosphate buffer at pH 7, 10 mg/mL final peptide concentration, shaking 2 hours at room temperature, peptides as TFA-salts; measured sample pH 6.5-7.0
hGLP1R = molecular target: T1, hGLP1R (Homo sapiens, UniProt P43220); assay: hGLP1R CreLuc assay in 0.5% and 100% plasma (HEK-293 CRE-luciferase reporter cells); assay type: cell-based; settings: HEK-293 reporter cells
T1 construct: expressed in transfected cells; host or cells: HEK-293 CRE-luciferase reporter cells
T1 sequence (P43220 24-463): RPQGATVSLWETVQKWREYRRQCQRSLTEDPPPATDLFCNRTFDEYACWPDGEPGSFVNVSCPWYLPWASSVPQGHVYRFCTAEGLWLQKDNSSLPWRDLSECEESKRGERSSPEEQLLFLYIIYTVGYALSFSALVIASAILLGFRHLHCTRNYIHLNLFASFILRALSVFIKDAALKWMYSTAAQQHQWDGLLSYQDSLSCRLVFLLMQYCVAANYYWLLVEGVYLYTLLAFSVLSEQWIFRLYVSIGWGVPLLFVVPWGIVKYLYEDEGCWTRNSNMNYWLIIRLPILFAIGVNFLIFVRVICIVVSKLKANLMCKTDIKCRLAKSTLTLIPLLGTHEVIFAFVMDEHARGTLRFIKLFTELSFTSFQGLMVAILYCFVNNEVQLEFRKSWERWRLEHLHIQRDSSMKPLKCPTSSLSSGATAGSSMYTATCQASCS

hGIPR = molecular target: T2, hGIPR (Homo sapiens, UniProt P48546); assay: hGIPR CreLuc assay in 0.5% and 100% plasma (CHO CRE-luciferase reporter cells); assay type: cell-based; settings: 0.5% human plasma, read-out: hGIPR 0.5% hP
T2 construct: expressed in transfected cells; host or cells: CHO CRE-luciferase reporter cells
T2 sequence (P48546 22-466): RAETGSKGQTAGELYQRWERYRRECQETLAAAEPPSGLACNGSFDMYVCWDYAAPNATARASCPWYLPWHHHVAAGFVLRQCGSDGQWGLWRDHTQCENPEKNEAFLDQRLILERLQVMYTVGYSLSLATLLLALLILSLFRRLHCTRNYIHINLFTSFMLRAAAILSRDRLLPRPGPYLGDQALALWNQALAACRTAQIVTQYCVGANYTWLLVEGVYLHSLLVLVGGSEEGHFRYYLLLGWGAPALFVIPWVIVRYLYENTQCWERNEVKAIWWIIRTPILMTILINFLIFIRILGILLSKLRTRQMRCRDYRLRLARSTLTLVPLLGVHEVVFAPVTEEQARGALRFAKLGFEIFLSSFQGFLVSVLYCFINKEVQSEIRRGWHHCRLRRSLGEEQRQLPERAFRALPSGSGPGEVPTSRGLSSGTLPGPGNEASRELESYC

[2] = 0.5% human plasma, read-out: hGLP1R 0.5% hP

solubility at 2 h [1]	EC50 (hGLP1R; [2])	EC50 (hGLP1R; 100% human plasma, read-out: hGLP1R 100% hP)	EC50 (hGIPR)	Structure (SMILES)
8900 µg/mL	0.1 nM	1 nM	0.7 nM	CC[C@H](C)[C@H](NC(=O)[C@H](CCCCN)NC(=O)[C@H](CC(=O)O)NC(=O)[C@H](CC(C)C)NC(=O)C(C)(C)NC(=O)[C@@H](NC(=O)[C@H](CO)NC(=O)[C@H](Cc1ccc(O)cc1)NC(=O)[C@H](CC(=O)O)NC(=O)[C@H](CO)NC(=O)[C@@H](NC(=O)[C@H](Cc1ccccc1)NC(=O)[C@@H](NC(=O)CNC(=O)[C@H](CCC(=O)O)NC(=O)C(C)(C)NC(=O)[C@@H](N)Cc1ccc(O)cc1)[C@@H](C)O)[C@@H](C)O)[C@@H](C)CC)C(=O)N[C@@H](C)C(=O)N[C@@H](CCC(N)=O)C(=O)NC(C)(C)C(=O)N[C@@H](C)C(=O)N[C@@H](Cc1ccccc1)C(=O)N[C@H](C(=O)N[C@@H](CCCNC(=N)N)C(=O)N[C@@H](Cc1c[nH]cn1)C(=O)N[C@@H](CC(C)C)C(=O)N[C@H](C(=O)N[C@@H](CC(N)=O)C(=O)N[C@@H](CCCCNC(=O)[C@@H](N)CCCCNC(=O)CC[C@H](NC(=O)CC[C@H](NC(=O)CC[C@H](NC(=O)CC[C@H](NC(=O)CC[C@H](NC(=O)CC[C@H](NC(=O)CCCCCCCCCCCCCCCCC(=O)O)C(=O)O)C(=O)O)C(=O)O)C(=O)O)C(=O)O)C(=O)O)C(=O)NC(C)(C)C(=O)N[C@H](C(=O)N[C@@H](CCCNC(=N)N)C(=O)N[C@@H](CCC(N)=O)C(=O)N[C@@H](CCCNC(=N)N)C(=O)N[C@@H](Cc1ccc(O)cc1)C(N)=O)[C@@H](C)O)[C@@H](C)CC)C(C)C [Compound 33, Y-Aib-E-G-T-F-T-S-D-Y-S-I-Aib-L-D-K-I-A-Q-Aib-A-F-V-R-H-L-I-N-K(1,3)-Aib-T-R-Q-R-Y-NH2.C18DA-gGlu-gGlu-gGlu-gGlu-gGlu-gGlu-eLys(1,2)]
4300 µg/mL	0.4 nM		0.1 nM	CC[C@H](C)[C@H](NC(=O)[C@H](CC(C)C)NC(=O)[C@H](Cc1c[nH]cn1)NC(=O)[C@H](CCCNC(=N)N)NC(=O)[C@@H](NC(=O)[C@H](Cc1ccccc1)NC(=O)[C@H](C)NC(=O)C(C)(C)NC(=O)[C@H](CCC(N)=O)NC(=O)[C@H](C)NC(=O)[C@H](CCC(N)=O)NC(=O)[C@H](CCCCN)NC(=O)[C@H](CCC(=O)O)NC(=O)[C@H](CC(C)C)NC(=O)C(C)(C)NC(=O)[C@@H](NC(=O)[C@H](CO)NC(=O)[C@H](Cc1ccc(O)cc1)NC(=O)[C@H](CC(=O)O)NC(=O)[C@H](CO)NC(=O)[C@@H](NC(=O)[C@H](Cc1ccccc1)NC(=O)[C@@H](NC(=O)CNC(=O)[C@H](CCC(=O)O)NC(=O)C(C)(C)NC(=O)[C@@H](N)Cc1ccc(O)cc1)[C@@H](C)O)[C@@H](C)O)[C@@H](C)CC)C(C)C)C(=O)N[C@@H](CC(N)=O)C(=O)N[C@@H](CCCCNC(=O)CCCCCNC(=O)CC[C@H](NC(=O)CC[C@H](NC(=O)CC[C@H](NC(=O)CC[C@H](NC(=O)CC[C@H](NC(=O)CCCCCCCCCCCCCCCCC(=O)O)C(=O)O)C(=O)O)C(=O)O)C(=O)O)C(=O)O)C(=O)NC(C)(C)C(=O)N[C@H](C(=O)N[C@@H](CCCNC(=N)N)C(=O)N[C@@H](CCC(N)=O)C(=O)N[C@@H](CCCNC(=N)N)C(=O)N[C@@H](Cc1ccc(O)cc1)C(N)=O)[C@@H](C)O [Compound 13, Y-Aib-E-G-T-F-T-S-D-Y-S-I-Aib-L-E-K-Q-A-Q-Aib-A-F-V-R-H-L-I-N-K(1,3)-Aib-T-R-Q-R-Y-NH2.C18DA-gGlu-gGlu-gGlu-gGlu-gGlu-AHX(1,2)]
